Measured values as given in patent US9149038B2, “4-amino-6-(heterocyclic)picolinates and 6-amino-2-(heterocyclic)pyrimidine-4-carboxylates and their use as herbicides” (Dow AgroSciences LLC, priority 2013, dated 2015).
Like-named read-outs stand apart in the source and are kept apart here.

How the values were obtained:
[1] = tested on: Key Broadleaf Weed and Crop Species; assay: Post-Emergent Test II: postemergent herbicidal activity, visual rating after 14 d (Table 7); assay type: in vivo; details: post-emergence, 336 h; for pest or weed control at 35 g/ha: 35 g ai/ha; for pest or weed control at 70 g/ha: 70 g ai/ha; for pest or weed control at 140 g/ha: 140 g ai/ha
Method in brief: (§1)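 Scoring is visual, 0-100, at 14 d after application, comparing treated with untreated plants. Application: overhead track spray at 187 L/ha onto seedlings at 1-2 true leaves, in surfactant/crop-oil carrier.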

[2] = tested on: Key Grass and Sedge Weeds as well as Grass Crops; assay: Post-Emergent Test II: postemergent herbicidal activity, visual rating after 14 d (Table 8); assay type: in vivo; details: post-emergence, 336 h; for pest or weed control at 35 g/ha: 35 g ai/ha; for pest or weed control at 70 g/ha: 70 g ai/ha; for pest or weed control at 140 g/ha: 140 g ai/ha
Method in brief: as §1

[3] = lambsquarters (Chenopodium album), read-out: Visual Growth Reduction (%) 14 Days After Application CHEAL
[4] = oilseed rape, canola (Brassica napus), read-out: Visual Growth Reduction (%) 14 Days After Application BRSNN
[5] = redroot pigweed (Amaranthus retroflexus), read-out: Visual Growth Reduction (%) 14 Days After Application AMARE
[6] = sunflower (Helianthus annuus), read-out: Visual Growth Reduction (%) 14 Days After Application HELAN
[7] = velvetleaf (Abutilon theophrasti), read-out: Visual Growth Reduction (%) 14 Days After Application ABUTH
[8] = wild poinsettia (Euphorbia heterophylla), read-out: Visual Growth Reduction (%) 14 Days After Application EPHHL
[9] = barnyardgrass (Echinochloa crus-galli), read-out: Visual Growth Reduction (%) 14 Days After Application ECHCG
[10] = giant foxtail (Setaria faberi), read-out: Visual Growth Reduction (%) 14 Days After Application SETFA
[11] = maize, corn (Zea mays), read-out: Visual Growth Reduction (%) 14 Days After Application ZEAMX
[12] = rice (Oryza sativa), read-out: Visual Growth Reduction (%) 14 Days After Application ORYSA
[13] = wheat, spring (Triticum aestivum), read-out: Visual Growth Reduction (%) 14 Days After Application TRZAS
[14] = yellow nutsedge (Cyperus esculentus), read-out: Visual Growth Reduction (%) 14 Days After Application CYPES

Structure (SMILES): COC(=O)c1nc(-c2cc3c(cc2F)OC(F)(F)O3)nc(N)c1Cl [Compound 56]
- pest or weed control at 35 g/ha [1, 3]: 0 to 29%
- pest or weed control at 70 g/ha [1, 3]: 0 to 29%
- pest or weed control at 140 g/ha [1, 3]: 0 to 29%
- pest or weed control at 35 g/ha [1, 4]: 0 to 29%
- pest or weed control at 70 g/ha [1, 4]: 0 to 29%
- pest or weed control at 140 g/ha [1, 4]: 0 to 29%
- pest or weed control at 35 g/ha [1, 5]: 0 to 29%
- pest or weed control at 70 g/ha [1, 5]: 0 to 29%
- pest or weed control at 140 g/ha [1, 5]: 0 to 29%
- pest or weed control at 35 g/ha [1, 6]: 85 to 94%
- pest or weed control at 70 g/ha [1, 6]: 85 to 94%
- pest or weed control at 140 g/ha [1, 6]: 85 to 94%
- pest or weed control at 35 g/ha [1, 7]: 0 to 29%
- pest or weed control at 70 g/ha [1, 7]: 0 to 29%
- pest or weed control at 140 g/ha [1, 7]: 0 to 29%
- pest or weed control at 35 g/ha [1, 8]: 60 to 74%
- pest or weed control at 70 g/ha [1, 8]: 95 to 100%
- pest or weed control at 140 g/ha [1, 8]: 95 to 100%
- pest or weed control at 35 g/ha [2, 9]: 75 to 84%
- pest or weed control at 70 g/ha [2, 9]: 75 to 84%
- pest or weed control at 140 g/ha [2, 9]: 95 to 100%
- pest or weed control at 35 g/ha [2, 10]: 60 to 74%
- pest or weed control at 70 g/ha [2, 10]: 75 to 84%
- pest or weed control at 140 g/ha [2, 10]: 75 to 84%
- pest or weed control at 35 g/ha [2, 11]: 45 to 59%
- pest or weed control at 70 g/ha [2, 11]: 60 to 74%
- pest or weed control at 140 g/ha [2, 11]: 75 to 84%
- pest or weed control at 35 g/ha [2, 12]: 0 to 29%
- pest or weed control at 70 g/ha [2, 12]: 0 to 29%
- pest or weed control at 140 g/ha [2, 12]: 0 to 29%
- pest or weed control at 35 g/ha [2, 13]: 0 to 29%
- pest or weed control at 70 g/ha [2, 13]: 30 to 44%
- pest or weed control at 140 g/ha [2, 13]: 30 to 44%
- pest or weed control at 35 g/ha [2, 14]: 0 to 29%
- pest or weed control at 70 g/ha [2, 14]: 45 to 59%
- pest or weed control at 140 g/ha [2, 14]: 45 to 59%

Structure (SMILES): COC(=O)c1nc(-c2cc3c(cc2F)OCO3)cc(N)c1Cl [Compound 45]
- pest or weed control at 35 g/ha [1, 3]: 85 to 94%
- pest or weed control at 70 g/ha [1, 3]: 95 to 100%
- pest or weed control at 140 g/ha [1, 3]: 95 to 100%
- pest or weed control at 35 g/ha [1, 4]: 75 to 84%
- pest or weed control at 70 g/ha [1, 4]: 95 to 100%
- pest or weed control at 140 g/ha [1, 4]: 95 to 100%
- pest or weed control at 35 g/ha [1, 5]: 95 to 100%
- pest or weed control at 70 g/ha [1, 5]: 95 to 100%
- pest or weed control at 140 g/ha [1, 5]: 95 to 100%
- pest or weed control at 35 g/ha [1, 6]: 60 to 74%
- pest or weed control at 70 g/ha [1, 6]: 60 to 74%
- pest or weed control at 140 g/ha [1, 6]: 75 to 84%
- pest or weed control at 35 g/ha [1, 7]: 95 to 100%
- pest or weed control at 70 g/ha [1, 7]: 95 to 100%
- pest or weed control at 140 g/ha [1, 7]: 95 to 100%
- pest or weed control at 35 g/ha [1, 8]: 75 to 84%
- pest or weed control at 70 g/ha [1, 8]: 85 to 94%
- pest or weed control at 140 g/ha [1, 8]: 95 to 100%
- pest or weed control at 35 g/ha [2, 9]: 75 to 84%
- pest or weed control at 70 g/ha [2, 9]: 75 to 84%
- pest or weed control at 140 g/ha [2, 9]: 85 to 94%
- pest or weed control at 35 g/ha [2, 10]: 60 to 74%
- pest or weed control at 70 g/ha [2, 10]: 60 to 74%
- pest or weed control at 140 g/ha [2, 10]: 85 to 94%
- pest or weed control at 35 g/ha [2, 11]: 45 to 59%
- pest or weed control at 70 g/ha [2, 11]: 60 to 74%
- pest or weed control at 140 g/ha [2, 11]: 75 to 84%
- pest or weed control at 35 g/ha [2, 12]: 45 to 59%
- pest or weed control at 70 g/ha [2, 12]: 60 to 74%
- pest or weed control at 140 g/ha [2, 12]: 60 to 74%
- pest or weed control at 35 g/ha [2, 13]: 30 to 44%
- pest or weed control at 70 g/ha [2, 13]: 45 to 59%
- pest or weed control at 140 g/ha [2, 13]: 60 to 74%
- pest or weed control at 35 g/ha [2, 14]: 30 to 44%
- pest or weed control at 70 g/ha [2, 14]: 30 to 44%
- pest or weed control at 140 g/ha [2, 14]: 60 to 74%
